23 compounds from patent US11834432B2, “Substituted amino six-membered nitric heterocyclic ring compound and preparation and use thereof” (SHANGHAI INSTITUTE OF MATERIA MEDICA, CHINESE ACADEMY OF …, priority 2016, dated 2023) can be followed below.

Series [1] has as its system human gastric cancer SNU-16 subcutaneously transplanted tumor. The series can be described thus: Growth of subcutaneously transplanted tumor in human gastric cancer SNU-16 nude mice. Type of series: in vivo. Here is the method: The human gastric cancer SNU-16 cell strain was preserved in our laboratory.
S10 groups (30 mg/kg and 10 mg/kg) were orally administered once a day for 21 days; AZD4547 group (10 mg/kg) was administered orally once a day for 21 days; solvent control group was given the same amount of water for injection.

For series [2] the test system is unchanged. The description is as above. Type of series: in vivo. The source holds these as a separate data set.
The test system of series [3] is human lung cancer NCI-H1581 subcutaneously transplanted tumor. The series can be described thus: Growth of subcutaneously transplanted tumor in human lung cancer NCI-H1581 nude mice.
Experimental: The cell strain was inoculated in the right axilla of the nude mice, and the amount of cells inoculated was 5×10^6/mouse to form transplanted tumor, which was directly inoculated and used.
The tumor tissue in the prosperous growth period was cut into 1.5 mm^3, and inoculated subcutaneously in the right axilla of the nude mice under aseptic conditions. The diameter of the transplanted tumor in the nude mice was measured with a vernier caliper, and the animals were randomly grouped when the average volume of tumors was about 150-160 mm^3. […] The solvent control group was given an equal amount of water for injection. The diameter of the transplanted tumor was measured twice a week during the entire experiment, and the body weight of the mice was also weighed. The calculation formula of tumor volume (TV) is: TV=1/2×a×b^2, where a and b respectively represent the length and width of the tumor. The relative tumor volume (RTV) was calculated based on the measured results and the formula was: RTV=Vt/V0, where V0 is the tumor volume measured at grouping and dosing (d0), and Vt is the tumor volume at each measurement.
Series [4] concerns the target FGFR1 kinase domain recombinant protein (Homo sapiens (Human), UniProt P11362). The series can be described thus: Inhibition of receptor tyrosine kinase FGFR1 activity (ELISA). Type of series: biochemical. To be noted: for inhibition at 0.1 µM: 1 h, read-out: Inhibition ratio (%) @ 0.1 μM. Here is the method:
1. Preliminary Evaluation Inhibition on Receptor Tyrosine Kinase FGFR1 Activity of Compound
1. […] The liquid from the well was discarded. The plate was washed for three times with T-PBS (0.1% Tween-20 in potassium-free PBS, 200 μL/well), 5 minutes for each time. The elisa plate was dried in 37° C. dryer for 1-2 hours.
2. 49 μL of ATP solution diluted in reaction buffer (50 mM HEPES pH 7.4, 50 mM MgCl2, 0.5 mM MnCl2, 0.2 mM Na3VO4, 1 mM DTT) was added into each well, and 1 μL of the test compound was added to each well, and then 50 μL of FGFR1 kinase domain recombinant protein diluted in reaction buffer was added to initiate the reaction, and two control wells without ATP were required for each experiment. The reaction was performed on a Shaker (100 rpm) at 37° C. for 1 hour. The liquid from the well was discarded, and the plate was washed with T-PBS for three times.
3. The antibody PY99 dilution (antibody diluted 1:500 in T-PBS with BSA 5 mg/mL) was added at 100 μL/well, and shaken for 0.5 hours on a 37° C. shaker. The liquid from the well was discarded, and the plate was washed with T-PBS for three times.
4. The horseradish peroxidase-labeled goat anti-mouse second antibody dilution (antibody diluted 1:2000 in T-PBS with BSA 5 mg/mL) was added at 100 μL/well, and shaken for 0.5 hours on a 37° C. shaker. The liquid from the well was discarded, and the plate was washed with T-PBS for three times.
5. 2 mg/mL OPD coloration solution (diluted with 0.1 M citric acid-sodium citrate buffer containing 0.03% H2O2 (pH=5.4)) was added at 100 μL/well, and reacted for 1-10 minutes at 25° C. in darkness.
6. The reaction was quenched with 50 μL/well of 2M H2SO4, and the plate was read using a tunable microplate microplate reader VERSAmax at 490 nm.
(§1) The IC50 values were obtained by four-parameter regression analysis using the software supplied with the microplate reader.

The test system of series [5] is SNU16 cells. The series can be described thus: Inhibition of proliferation of SNU16 cells (CCK-8). In kind it is cell-based. To be noted: Homo sapiens, SNU-16, 72 h; for inhibition at 0.01 µM: 10 nM; for inhibition at 0.01 µM / inhibition at 0.1 µM / inhibition at 1 µM: 72 h, read-out: Inhibition ratio (%); for inhibition at 0.1 µM: 100 nM; for inhibition at 1 µM: 1000 nM. As for the experimental part:
The inhibitory effect on proliferation of SNU16 cells of a compound was examined by CCK-8 Cell Counting Kit (Dojindo). The steps are as follows: SNUI 6 cells at Logarithmic growth phase were seeded in a 96-well culture plate at appropriate density, 90 ul for each well. After cultured overnight, different concentrations of drugs were added and treated for 72 h, while solvent control well was set (negative control). After 72 h, the influence of the compound on the proliferation of cells was observed by CCK-8 cell counting kit (Dojindo). 10 μL of CCK-8 reagent was added to each well. After incubated for 2-4 hours in a 37° C. incubator, the plate was read with SpectraMax 190 microplate reader at wavelength 450 nm.
as §1

A value given as a limit tells only on which side of the number the result lay.

Chain of FGFR1 kinase domain recombinant protein (P11362 478-767): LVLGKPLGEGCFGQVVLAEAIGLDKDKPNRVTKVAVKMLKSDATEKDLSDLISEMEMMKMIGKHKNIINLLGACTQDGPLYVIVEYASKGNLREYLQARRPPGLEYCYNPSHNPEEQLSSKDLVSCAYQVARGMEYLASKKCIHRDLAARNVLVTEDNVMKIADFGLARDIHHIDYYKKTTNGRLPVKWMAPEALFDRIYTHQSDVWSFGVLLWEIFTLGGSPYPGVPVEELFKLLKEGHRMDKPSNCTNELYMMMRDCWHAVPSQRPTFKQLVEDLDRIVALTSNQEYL

Consider `COc1cc(CCc2cc(NC(=O)c3ccc(N4CC(C)NC(C)C4)cc3)n[nH]2)cc(OC)c1` (centres unmarked) [AZD4547, reference compound], for which, in series [1] (10 mg/kg po qd/21, d0), the “Body weight (g) d0” value worked out at 20.1 g and the “TV (mm^3, mean ± SD) d0” value came to 103 ± 18 mm^3. In addition, in series [1] (10 mg/kg po qd/21, d21), the “Body weight (g) d21” value is 22.4 g; the “RTV (mean ± SD)” value stood at 8.21 ± 3.91; the “T/C (%)” value is listed as 59.80%; the “TV (mm^3, mean ± SD) d21” value amounted to 790 ± 247 mm^3.

Regarding `CNC(=O)n1ccc2cc(Oc3ccnc(NC(=O)c4ccc(C5CCN(CCO)CC5)cc4)c3)c(OCCOC)cc21` [Compound E7090, reference compound], the “Relative tumor proliferation rate T/C (%)” value in series [1] (12.5 mg/Kg) amounted to 26%; in series [2] (6.25 mg/Kg), 49%; in series [2] (25 mg/Kg), 17%; in series [2] (50 mg/Kg) it was 18%; in series [3] (6.25 mg/Kg), 46%; in series [3] (12.5 mg/Kg) it was 21%. For the same compound, the “Relative tumor proliferation rate T/C (%)” value in series [3] (25 mg/Kg) worked out at 13%; in series [3] (50 mg/Kg), 8%.

A word on the IC50: it is the concentration that inhibits the measured activity by half. In the case of `CNC(=O)c1cccc2cc(Oc3ccnc(NC(=O)c4ccc(OCCN5CC(F)C5)cc4)c3)ccc12` [Compound S1], in series [4], the half-inhibitory concentration (IC50) was < 0.1 µM and the inhibition at 0.1 µM came out at 72%.

Turning to `CNC(=O)c1cccc2cc(Oc3ccnc(NC(=O)c4ccc(OCCN5CC(F)(F)C5)cc4)c3)ccc12` [Compound S2], in series [4], the concentration for half-maximal inhibition (IC50) was < 0.1 µM and the inhibition at 0.1 µM was 80%.

Take `CNC(=O)c1cccc2cc(Oc3ccnc(NC(=O)c4ccc(OCC5(N)CC5)cc4)c3)ccc12` [Compound S3]: in series [4], the 50% inhibitory concentration (IC50) was < 0.01 µM and the inhibition at 0.1 µM was found to be 90%.

Consider `CNC(=O)c1cccc2cc(Oc3ccnc(NC(=O)c4ccc(OCCN5CCCC5)cc4)c3)ccc12` [Compound S4], for which, in series [4], the IC50 is < 0.01 µM and the inhibition at 0.1 µM was found to be 74%. For the same compound, in series [5], the IC50 was 0.0292 µM, the inhibition at 0.01 µM stood at 55.3%, the inhibition at 0.1 µM came to 61% and the inhibition at 1 µM was 59%.

In the case of `CNC(=O)c1cccc2cc(Oc3ccnc(NC(=O)c4ccc(N5CCN(C)CC5)cc4)c3)ccc12` [Compound S5], in series [4], the inhibition at 0.1 µM was 87%. In series [5], the concentration for half-maximal inhibition (IC50) was 0.0138 µM, the inhibition at 0.01 µM was 60.4%, the inhibition at 0.1 µM stood at 60.1% and the inhibition at 1 µM was 57.8%.

Turning to `CNC(=O)c1cccc2cc(Oc3ccnc(NC(=O)c4ccc(C5CCNCC5)cc4)c3)ccc12` [Compound S6], in series [4], the 50% inhibitory concentration (IC50) is < 0.01 µM and the inhibition at 0.1 µM was 84%. In addition, in series [5], the IC50 was found to be 0.0159 µM, the inhibition at 0.01 µM is 45.1%, the inhibition at 0.1 µM is 63.5% and the inhibition at 1 µM worked out at 59.6%.

Turning to `CNC(=O)c1cccc2cc(Oc3ccnc(NC(=O)c4ccc(N5CCOCC5)cc4)c3)ccc12` [Compound S7], in series [4], the IC50 was < 0.01 µM and the inhibition at 0.1 µM was 91%. Moreover, in series [5], the inhibition at 0.01 µM stood at 30.1%, the inhibition at 0.1 µM worked out at 53.3% and the inhibition at 1 µM is 60.5%.

For `CNC(=O)c1cccc2cc(Oc3ccnc(NC(=O)c4ccc(N5CC(C)OC(C)C5)cc4)c3)ccc12` (centres unmarked) [Compound S8], in series [4], the concentration for half-maximal inhibition (IC50) was < 0.01 µM and the inhibition at 0.1 µM is 93%. Further, in series [5], the inhibition at 0.01 µM was 23.2%, the inhibition at 0.1 µM came to 36.3% and the inhibition at 1 µM was 48.1%.

As to `CNC(=O)c1cccc2cc(Oc3ccnc(NC(=O)c4ccc(N5CCNC(C)C5)cc4)c3)ccc12` (centres unmarked) [Compound S9], in series [4], the IC50 was < 0.01 µM and the inhibition at 0.1 µM came to 95%. In series [5], the IC50 was 0.0138 µM, the inhibition at 0.01 µM amounted to 70.9%, the inhibition at 0.1 µM is 73.2% and the inhibition at 1 µM was 73.3%.

Consider `CNC(=O)c1cccc2cc(Oc3ccnc(NC(=O)c4ccc(N5CCN(CCO)CC5)cc4)c3)ccc12` [Compound S11], for which, in series [4], the half-maximal inhibitory concentration (IC50) was < 0.01 µM and the inhibition at 0.1 µM was 89%.

For `CNC(=O)c1cccc2cc(Oc3ccnc(NC(=O)c4ccc(CN5CCN(C)CC5)c(C(F)(F)F)c4)c3)ccc12` [Compound S12], in series [4], the 50% inhibitory concentration (IC50) was < 1 µM and the inhibition at 0.1 µM stood at 44%.

`CNC(=O)c1cccc2cc(Oc3ccnc(NC(=O)c4ccc(N5C[C@@H](C)N[C@@H](C)C5)cc4F)c3)ccc12` [Compound S13]: in series [4], the IC50 is > 1 µM and the inhibition at 0.1 µM was 23%.

As for `CNC(=O)c1cccc2cc(Oc3ccnc(NC(=O)c4ccc(N5C[C@@H](C)N[C@@H](C)C5)cc4OC)c3)ccc12` [Compound S14], in series [4], the IC50 was < 1 µM and the inhibition at 0.1 µM turned out to be 40%.

As for `CNC(=O)c1cccc2cc(Oc3ccnc(NC(=O)c4ccc(N5C[C@@H](C)N[C@@H](C)C5)cc4C)c3)ccc12` [Compound S15], in series [4], the IC50 is < 0.1 µM and the inhibition at 0.1 µM was 71%.

In the case of `CNC(=O)c1cccc2cc(Oc3ccnc(NC(=O)c4cnc(N5C[C@@H](C)N[C@@H](C)C5)nc4)c3)ccc12` [Compound S16], in series [4], the IC50 is < 0.1 µM and the inhibition at 0.1 µM was 58%. Moreover, in series [5], the inhibition at 0.01 µM was 26.4%, the inhibition at 0.1 µM came to 55.3% and the inhibition at 1 µM was found to be 61.6%.

On to `CNC(=O)c1cccc2cc(Oc3ccnc(NC(=O)c4csc(N5CCN(C)CC5)n4)c3)ccc12` [Compound S17], for which, in series [4], the IC50 is < 0.1 µM and the inhibition at 0.1 µM amounted to 59%.

For `CNC(=O)c1cccc2cc(Oc3ccnc(NC(=O)c4coc(N5CCN(C)CC5)n4)c3)ccc12` [Compound S18], in series [4], the IC50 is < 0.1 µM and the inhibition at 0.1 µM was determined as 65%.

As to `CNC(=O)c1cccc2cc(Oc3ccnc(NC(=O)c4cnn(CCO)c4)c3)ccc12` [Compound S19], in series [4], the IC50 was < 0.01 µM and the inhibition at 0.1 µM came to 86%.

`CNC(=O)c1cccc2cc(Oc3ccnc(NC(=O)c4ccc(N5C[C@@H](C)N[C@@H](C)C5)cc4)n3)ccc12` [Compound S20]: in series [4], the IC50 was < 0.01 µM and the inhibition at 0.1 µM stood at 94%.

In the case of `CNC(=O)c1cccc2cc(Oc3ccnc(NC(=O)c4ccc(NCC5(O)CCOCC5)cc4)c3)ccc12` [Compound S23], in series [4], the IC50 was < 0.01 µM and the inhibition at 0.1 µM was determined as 86%.

With `COC(=O)c1cccc2cc(Oc3ccnc(NC(=O)c4ccc(N5C[C@@H](C)N[C@@H](C)C5)cc4)c3)ccc12` [Compound S24], in series [4], the IC50 was < 0.01 µM and the inhibition at 0.1 µM was 87%.
